We go through 47 compounds from patent US20230014907A1, “INHIBITORS OF APOL1 AND METHODS OF USING SAME” (Vertex Pharmaceuticals Incorporated, priority 2020, published 2023).

The term IC50 denotes the concentration at which inhibition is half-maximal.

Molecules are shown by their SMILES.

Experiment [1] concerns the target T1, G1 APOL1 (Homo sapiens, UniProt O14791, I384M/S342G).
T1 construct: expressed in transfected cells
T1 sequence (O14791 28-398 S342G/I384M): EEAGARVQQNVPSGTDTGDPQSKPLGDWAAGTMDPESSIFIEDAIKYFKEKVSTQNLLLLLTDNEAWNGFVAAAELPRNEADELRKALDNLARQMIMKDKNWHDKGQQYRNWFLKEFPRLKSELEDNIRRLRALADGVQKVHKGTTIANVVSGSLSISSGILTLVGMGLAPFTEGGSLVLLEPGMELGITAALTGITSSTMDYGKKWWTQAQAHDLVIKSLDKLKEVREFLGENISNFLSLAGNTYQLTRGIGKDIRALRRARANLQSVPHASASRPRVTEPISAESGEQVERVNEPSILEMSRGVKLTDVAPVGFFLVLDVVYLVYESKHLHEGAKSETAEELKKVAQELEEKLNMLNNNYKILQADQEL
In words: Acute APOL1 Thallium Assay with Inducible Stable Clones of HEK 293 Cells. Format: cell-based. The following applies: HEK 293 inducible stable clones, G1 APOL1; read-out: Thallium Assay (IC50). In outline:
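Pore activity was read as the fluorescence increase from Tl+ entering cells loaded with an AM-ester thallium indicator dye. The cells were tetracycline-inducible HEK293 T-Rex expressing G1 APOL1 (clone DC3.25), induced when plated at 26000 per well and incubated at 37° C.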

The target of experiment [2] is T2, APOL1 G1 Protein (Homo sapiens, UniProt O14791, I384M/S342G).
T2 sequence (O14791 28-398 S342G/I384M): T1 sequence (O14791 28-398 S342G/I384M)
In words: Trypanosoma brucei brucei Lysis Assay Using APOL1 Recombinant Protein (AlamarBlue viability). The class given is cell-based. The following applies: read-out: Trypanosomal Assay (IC50). An outline of the steps:
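Lister 427 bloodstream-form trypanosomes seeded at 120,000 per well in phenol-red-free, serum-free medium and lysed with recombinant APOL1 variant protein. Viability read by AlamarBlue (resazurin) fluorescence. Percent viability relative to untreated wells, interpolated from a standard curve of seeded parasites.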

Consider `Cn1ccc(NC(=O)CCc2c(-c3ccc(F)cc3)[nH]c3c(F)cc(F)cc23)n1` [Compound 163], for which the 50% inhibitory concentration (IC50) in experiment [1] and in experiment [2] was over 1 µM throughout.

In the case of `O=C(CCc1c(-c2ccc(F)cc2)[nH]c2c(F)cc(F)cc12)Nc1ccncc1` [Compound 119], the IC50 in experiment [1] and in experiment [2] was over 1 µM throughout.

Consider `CC(C)(NC(=O)CCc1c(-c2ccc(F)cc2)[nH]c2ccc(F)cc12)C(N)=O` [Compound 17], for which the IC50 in experiment [1] and in experiment [2] was 0.25 to 1 µM each time.

As for `O=C(CCc1c(-c2ccc(F)cc2)[nH]c2ccc(F)cc12)NC1(CO)CC1` [Compound 40], the half-inhibitory concentration (IC50) in experiment [1] and in experiment [2] was 0.25 to 1 µM throughout.

Consider `O=C(CCc1c(-c2ccc(F)cc2)[nH]c2ccc(F)cc12)Nc1cn[nH]c1` [Compound 46], for which the half-inhibitory concentration (IC50) in experiment [1] and in experiment [2] was over 1 µM each time.

In the case of `CC(=O)NCCCCc1c(-c2ccc(F)cc2)[nH]c2c(F)cc(F)cc12` [Compound 512, N-[4-[5,7-difluoro-2-(4-fluorophenyl)-1H-indol-3-yl]butyl]acetamide], the IC50 in experiment [1] and in experiment [2] was 0.25 to 1 µM throughout.

With `CC(CN)NC(=O)CCc1c(-c2ccc(F)cc2)[nH]c2ccc(F)cc12` (racemic) [Compound 5], the IC50 in experiment [1] and in experiment [2] was over 1 µM throughout.

For the compound `CC(C)(C)OC(=O)NC1CN(C(=O)CCc2c(-c3ccc(F)cc3)[nH]c3ccc(F)cc23)C1` [Compound 52], the IC50 in experiment [1] and in experiment [2] was over 1 µM each time.

For the compound `COCC1(NC(=O)CCc2c(-c3ccc(F)cc3)[nH]c3c(F)cc(F)cc23)CC1` [Compound 102], the IC50 in experiment [1] and in experiment [2] was 0.25 to 1 µM each time.

In the case of `O=C(NCCCc1c(-c2ccc(F)cc2)[nH]c2ccc(F)cc12)C(F)F` [Compound 506], the IC50 in experiment [1] and in experiment [2] was 0.25 to 1 µM in each case.

Consider `O=C(CCc1c(-c2ccc(F)cc2)[nH]c2c(F)cc(F)cc12)Nc1ncco1` [Compound 162], for which the IC50 in experiment [1] and in experiment [2] was over 1 µM throughout.

With `CN(CCNC(=O)OC(C)(C)C)C(=O)CCc1c(-c2ccc(F)cc2)[nH]c2ccc(F)cc12` [Compound 72], the IC50 in experiment [1] and in experiment [2] was over 1 µM throughout.

Turning to `C[C@H](CO)NC(=O)CCc1c(-c2ccc(F)cc2)[nH]c2c(F)cc(Br)cc12` [Compound 227, 3-[5-bromo-7-fluoro-2-(4-fluorophenyl)-1H-indol-3-yl]-N-[(1R)-2-hydroxy-1-methyl-ethyl]propanamide], the IC50 in experiment [1] and in experiment [2] was under 0.25 µM throughout.

For the compound `N#Cc1ccc(-c2[nH]c3c(F)cc(F)cc3c2CCC(=O)N[C@@H](CO)C(F)(F)F)cc1` [Compound 234, 3-[2-(4-cyanophenyl)-5,7-difluoro-1H-indol-3-yl]-N-[(1S)-2,2,2-trifluoro-1-(hydroxymethyl)ethyl]propanamide], the IC50 in experiment [1] and in experiment [2] was under 0.25 µM in each case.

On to `O=C(CCc1c(-c2ccc(F)cc2)[nH]c2c(F)cc(F)cc12)NC1CCOC1` (stereo not shown) [Compound 169], for which the IC50 in experiment [1] and in experiment [2] was over 1 µM in each case.

For `CC(C)(C)OC(=O)N[C@H]1C[C@H](NC(=O)CCc2c(-c3ccc(F)cc3)[nH]c3ccc(F)cc23)C1` [Compound 57], the IC50 in experiment [1] and in experiment [2] was over 1 µM in each case.

Consider `O=C(CCc1c(-c2ccc(F)cc2)[nH]c2ccc(F)cc12)NCC(F)F` [Compound 24], for which the IC50 in experiment [1] is 0.25 to 1 µM; in experiment [2], over 1 µM.

Turning to `O=C(CCc1c(-c2ccc(F)cc2)[nH]c2c(F)cc(F)cc12)NC1(CCO)CC1` [Compound 154], the concentration for half-maximal inhibition (IC50) in experiment [1] and in experiment [2] was over 1 µM each time.

Turning to `Cn1nccc1NC(=O)CCc1c(-c2ccc(F)cc2)[nH]c2c(F)cc(F)cc12` [Compound 144], the IC50 in experiment [1] and in experiment [2] was over 1 µM each time.

For `O=C(CCc1c(-c2ccc(F)cc2)[nH]c2c(F)cc(F)cc12)Nc1cccnc1` [Compound 174], the IC50 in experiment [1] and in experiment [2] was over 1 µM each time.

For the compound `O=C(CCc1c(-c2ccc(F)cc2)[nH]c2c(F)cc(Br)cc12)N[C@@H](CO)C(F)(F)F` [Compound 229], the half-inhibitory concentration (IC50) in experiment [1] is 0.25 to 1 µM; in experiment [2] it was under 0.25 µM.

`CS(=O)(=O)NC(=O)CCc1c(-c2ccc(F)cc2)[nH]c2c(F)cc(F)cc12` [Compound 93, 3-[5,7-difluoro-2-(4-fluorophenyl)-1H-indol-3-yl]-N-methylsulfonyl-propanamide]: the half-maximal inhibitory concentration (IC50) in experiment [1] and in experiment [2] was over 1 µM each time.

`O=C(CCc1c(-c2ccc(F)cc2)[nH]c2ccc(F)cc12)NC1COC1` [Compound 69]: the IC50 in experiment [1] and in experiment [2] was over 1 µM each time.

As for `C[C@H](CO)NC(=O)CCc1c(-c2ccc(F)cc2)[nH]c2ccc(F)cc12` [Compound 8], the half-inhibitory concentration (IC50) in experiment [1] and in experiment [2] was under 0.25 µM in each case.

Consider `CC(C)(C)OC(=O)N1C[C@H](NC(=O)CCc2c(-c3ccc(F)cc3)[nH]c3ccc(F)cc23)[C@@H](O)C1` [Compound 76], for which the IC50 in experiment [1] and in experiment [2] was over 1 µM each time.

Turning to `O=C(CCc1c(-c2ccc(F)cc2)[nH]c2c(F)cc(F)cc12)NCCC(=O)N1CC(O)C1` [Compound 191], the IC50 in experiment [1] and in experiment [2] was over 1 µM each time.

As to `O=C(CCc1c(-c2ccc(F)cc2)[nH]c2c(F)cc(F)cc12)N1CC[C@H]1CO` [Compound 138], the IC50 in experiment [1] and in experiment [2] was over 1 µM throughout.

`CS(=O)(=O)CNC(=O)CCc1c(-c2ccc(F)cc2)[nH]c2c(F)cc(F)cc12` [Compound 173]: the IC50 in experiment [1] and in experiment [2] was over 1 µM throughout.

Turning to `CN(CC(F)(F)F)C(=O)CCc1c(-c2ccc(F)cc2)[nH]c2c(F)cc(F)cc12` [Compound 166], the IC50 in experiment [1] and in experiment [2] was over 1 µM each time.

For the compound `O=C(CCc1c(-c2ccc(F)cc2)[nH]c2ccc(F)cc12)NC1(CO)COC1` [Compound 32], the IC50 in experiment [1] and in experiment [2] was 0.25 to 1 µM throughout.

With `NC1CCCN(C(=O)CCc2c(-c3ccc(F)cc3)[nH]c3ccc(F)cc23)C1` (stereo not shown) [Compound 56], the IC50 in experiment [1] and in experiment [2] was over 1 µM throughout.

In the case of `O=C(CCc1c(-c2ccc(F)cc2)[nH]c2c(F)cc(F)cc12)N1CC[C@@H]1CO` [Compound 112], the IC50 in experiment [1] is over 1 µM; in experiment [2] it was 0.25 to 1 µM.

Take `CN(CCN)C(=O)CCc1c(-c2ccc(F)cc2)[nH]c2ccc(F)cc12` [Compound 37]: the IC50 in experiment [1] and in experiment [2] was over 1 µM in each case.

For `CCNC(=O)C(C)NC(=O)CCc1c(-c2ccc(F)cc2)[nH]c2ccc(F)cc12` (racemic) [Compound 12], the IC50 in experiment [1] and in experiment [2] was 0.25 to 1 µM each time.

As to `CC1CC(NC(=O)CCc2c(-c3ccc(F)cc3)[nH]c3c(F)cc(F)cc23)C(=O)O1` (mixture of isomers) [Compound 189], the IC50 in experiment [1] and in experiment [2] was over 1 µM in each case.

Consider `Cc1ccc(CNC(=O)CCc2c(-c3ccc(F)cc3)[nH]c3c(F)cc(F)cc23)o1` [Compound 177], for which the IC50 in experiment [1] and in experiment [2] was over 1 µM throughout.

Turning to `O=C(CCc1c(-c2ccc(F)cc2)[nH]c2c(F)cc(F)cc12)NC(CO)c1ccccn1` (stereo not shown) [Compound 185], the IC50 in experiment [1] and in experiment [2] was over 1 µM in each case.

In the case of `O=C(CCc1c(-c2ccc(F)cc2)[nH]c2ccc(F)cc12)NCCCO` [Compound 85], the IC50 in experiment [1] and in experiment [2] was over 1 µM each time.

For the compound `CC(C)(NC(=O)CCc1c(-c2ccc(F)cc2)[nH]c2c(F)cc(F)cc12)C(F)(F)F` [Compound 182], the half-inhibitory concentration (IC50) in experiment [1] and in experiment [2] was over 1 µM throughout.

As to `O=C(CCc1c(-c2ccc(F)cc2)[nH]c2c(F)cc(F)cc12)N1CC(CO)C1` [Compound 104], the IC50 in experiment [1] and in experiment [2] was over 1 µM in each case.

With `CC(CNC(=O)OC(C)(C)C)NC(=O)CCc1c(-c2ccc(F)cc2)[nH]c2ccc(F)cc12` (racemic) [Compound 59], the IC50 in experiment [1] and in experiment [2] was over 1 µM throughout.

Take `CC(O)C(=O)NCCCc1c(-c2ccc(F)cc2)[nH]c2ccc(F)cc12` (racemic) [Compound 507]: the IC50 in experiment [1] was under 0.25 µM; in experiment [2] it was 0.25 to 1 µM.

On to `O=C(CCc1c(-c2ccc(F)cc2)[nH]c2ccc(F)cc12)NC1CC1(F)F` (stereo not shown) [Compound 45], for which the IC50 was 0.25 to 1 µM in experiment [1] and over 1 µM in experiment [2].

Turning to `NC(=O)C(CO)NC(=O)CCc1c(-c2ccc(F)cc2)[nH]c2ccc(F)cc12` (stereo not shown) [Compound 36], the IC50 in experiment [1] and in experiment [2] was over 1 µM throughout.

Consider `Cc1cc(NC(=O)CCc2c(-c3ccc(F)cc3)[nH]c3ccc(F)cc23)no1` [Compound 526], for which the IC50 in experiment [1] and in experiment [2] was over 1 µM each time.

As to `O=C(CCc1c(-c2ccc(F)cc2)[nH]c2ccc(F)cc12)NCCO` [Compound 25], the IC50 in experiment [1] and in experiment [2] was over 1 µM in each case.

`C[C@@H](CO)NC(=O)NCCc1c(-c2ccc(F)cc2)[nH]c2c(F)cc(F)cc12` [Compound 283]: the IC50 in experiment [1] and in experiment [2] was under 0.25 µM each time.
